Assay results: patent US20210009557A1, “ACYCLIC CXCR4 INHIBITORS AND USES THEREOF” (X4 Pharmaceuticals, Inc., priority 2017, published 2021)

Columns and labels:
[1] = target: T1, CXCR-4 transfected U87 cell line (U87.CXCR4) (Homo sapiens, UniProt P61073); assay: Intracellular CXCL-12-induced calcium mobilization assay (FLIPR); format: cell-based; settings: U87.CXCR4 cells; CXCL-12 25-50 ng/mL; compounds added 15 minutes before; read-out: IC50 CXCL-12 Ca2+ flux U87.CXCR4+
T1 construct: expressed in transfected cells; host or cells: U87 cell line (U87.CXCR4)
Experimental: Intracellular calcium mobilization induced by chemokines orchemokine-derived peptides were evaluated using a calcium responsive fluorescent probe and a FLIPR system. The CXCR-4 transfected U87 cell line (U87.CXCR4) cells were seeded in gelatine-coated black-wall 96-well plates at 20,000 cells per well and incubated for 12 hours. Cells were then loaded with the fluorescent calcium probe Fluo-2 acetoxymethyl at 4 μM final concentration in assay buffer (Hanks' balanced salt solution with 20 mM HEPES buffer and 0.2% bovine serum albumin, pH 7.4) for 45 min at 37′C. The intracellular calcium mobilization induced by the CXCL-12 (25-50 ng/mL) was then measured at 37° C. by monitoring the fluorescence as a function of time in all the wells simultaneously using a fluorometric imaging plate reader (FLIPR Tetra, Molecular Devices).

in vitro = settings: human, Caco-2, pH 7.4
Experimental: The goal of this assay was to evaluate the intestinal absorption potential of drug candidates using Caco-2 cell lines.
Experimental Procedure • 1. Pre-warm Pre-warm HBSS Buffer in 37° C. water bath • 2. Sonicate Take compounds from −20° C., sonicate for a few minutes (no less than 1 minute) • 3. Solution preparation
For A-to-B Direction: • HBSS buffer with 0.3% DMSO and 5 μM LY: add 150 μL DMSO and 50 μL LY (5 mM) into 50 ml HBSS buffer (pH 7.4). • HBSS buffer with 0.1% DMSO and 5 μM LY: add 50 μL DMSO and 50 μL LY (5 mM) into 50 mL HBSS buffer (pH 7.4).
For B-to-A Direction: • HBSS buffer with 0.3% DMSO: add 150 μL DMSO into 50 ml HBSS buffer (pH 7.4). HBSS buffer with 0.1% DMSO: add 50 μL DMSO into 50 ml HBSS buffer (pH 7.4).
For A-to-B Direction: • Prepare HBSS buffer with 0.4% DMSO: add 200 μL DMSO into 50 ml HBSS buffer (pH 7.4).
For B-to-A Direction: • Prepare HBSS buffer with 0.4% DMSO and 5 μM LY: add 200 μL DMSO and 50 μL LY (5 mM) into 50 ml HBSS buffer (pH 7.4).
• 4. Measure TEER Take cell culture plate out of incubator, wash the cell monolayers with HBSS buffer, and then measure TEER values at Rm temperature. • 5. Centrifuge Centrifuge the compound solution (from step 3) at 4000 rpm for 5 min before loading to donor chambers. • 6. Dosing Add solution based on the volumes listed in the following table (make sure to take extra 100 μL of donor sample for T0 as Backup).
• 7. Apical LYTO samples To determine LY concentration in the apical chamber, take 100 μL sample from apical chambers into an opaque plate for LYTO. • 8. Pre-warm Pre-warm apical and basolateral plates at 37° C. for about 5 min, then begin transport by placing the apical plate onto basolateral plate. • 9. Incubation Keep the plates in incubator at 37° C. for 90 min. • 10.
• Prepare 1× solution: • 3 μL (20×)+57 μL of 0.4% DMSO HBSS+60 μL ACN with IS (Osalmid or Imipramine)—120 μL (1×) • 11. Transport termination Separate the apical plate from the basolateral plate after 90-min incubation. • 12. Measure LY Take 100 μL samples from basolateral plate to an opaque plate as LYT90. • 13. Measure LY concentrations for LYTO and LYT90 by Fluorometer (at excitation of 485 nm/emission of 535 nm). • 14.
Drug permeability: Papp=(VA/(Area×time))×([drug]accepter/(([drug]initial, donor)×Dilution Factor) • Where VA is the volume in the acceptor well, area is the surface area of the membrane and time is the total transport time in seconds.
For Millicell-24 Cell Culture Plates: surface area of the membrane=0.7 cm^2, VA=0.8 mL (A-to-B) or 0.4 mL (B-to-A)

[2] = target: T2, Jurkat cells expressing CXCR4 (Homo sapiens, UniProt P61073); assay: Chemokine (CXCL12-AF647) binding inhibition assay; settings: CXCL12-AF647 25 ng/mL, read-out: IC50 CXCL-12 binding Jurkat
T2 construct: Jurkat cells expressing CXCR4; endogenous in cells; host or cells: Jurkat cells
Experimental: Jurkat cells expressing CXCR4 were washed once with assay buffer (Hanks' balanced salt solution with 20 mM HEPES buffer and 0.2% bovine serum albumin, pH 7.4) and then incubated for 15 min at room temperature with the test compounds diluted in assay buffer at dose-dependent concentrations. Subsequently, CXCL12-AF647 (25 ng/mL) was added to the compound-incubated cells. The cells were incubated for 30 min at room temperature. Thereafter, the cells were washed twice in assay buffer, fixed in 1% paraformaldehyde in PBS, and analyzed on the FL4 channel of a FACSCalibur flow cytometer equipped with a 635-nm red diode laser (Becton Dickinson, San Jose, Calif., USA).
The percentages of inhibition of CXCL12-AF647 binding were calculated according to the formula: [1−((MFI−MFINC)/(MFIPC−MFINC))]×100 where MFI is the mean fluorescence intensity of the cells incubated with CXCL12-AF647 in the presence of the inhibitor, MFINC is the mean fluorescence intensity measured in the negative control (i.e., autofluorescence of unlabeled cells), and MFIPC is the mean fluorescence intensity of the positive control (i.e., cells exposed to CXCL12-AF647 alone).

T1 sequence (P61073 whole entry): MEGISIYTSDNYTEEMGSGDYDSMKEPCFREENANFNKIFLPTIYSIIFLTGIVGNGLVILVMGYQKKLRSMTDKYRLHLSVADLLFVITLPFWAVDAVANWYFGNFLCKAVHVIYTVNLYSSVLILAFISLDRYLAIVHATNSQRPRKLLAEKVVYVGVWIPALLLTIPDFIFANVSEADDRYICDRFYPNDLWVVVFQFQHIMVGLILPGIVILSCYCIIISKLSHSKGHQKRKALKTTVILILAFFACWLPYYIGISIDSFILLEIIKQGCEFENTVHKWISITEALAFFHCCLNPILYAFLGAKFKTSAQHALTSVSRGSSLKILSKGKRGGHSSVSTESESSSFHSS
T2 sequence (P61073 whole entry): as above

Compound | IC50 [1] [nM] | Papp A→B at 90 min, 10 μM (in vitro) [×10⁻⁶ cm/s] | Papp B→A at 90 min, 10 μM (in vitro) [×10⁻⁶ cm/s] | efflux ratio at 90 min, 10 μM (in vitro) | IC50 [2] [nM]
c1ccc2c(CN(CCc3c[nH]cn3)Cc3nccs3)nccc2c1 [Compound I-54] | ≥ 1000 | 5 to 10 | > 10 | 0.1 to 10 | 100 to 1000
COc1ccnc(CCN(Cc2ncccc2C)Cc2ncccc2C)c1 [Compound I-33] | ≥ 1000 | > 10 | > 10 | 0.1 to 10 | 0.01 to 100
c1cnc2c(c1)CCC[C@@H]2N(CCC1CCCO1)Cc1nc2ccccc2[nH]1 (stereo partly shown) [Compound I-17] | ≥ 1000 |  |  |  | 0.01 to 100
CC(c1ccccn1)N(CCc1cnc[nH]1)Cc1nc2ccccc2[nH]1 (stereo not shown) [Compound I-7, N-((1H-benzo[d]imidazol-2-yl)methyl)-N-(2-(1H-imidazol-5-yl)ethyl)-1-(pyridin-2-yl)ethan-1-amine] | ≥ 1000 | < 5 | > 10 | > 30 | 0.01 to 100
Cc1cccnc1CN(CCc1cccc(O)n1)Cc1ncccc1C [Compound I-59] | ≥ 1000 | > 10 | > 10 | 0.1 to 10 | 100 to 1000
OCCN(Cc1nc2ccccc2[nH]1)[C@H]1CCCc2cccnc21 [Compound I-55] | ≥ 1000 | > 10 | > 10 | 0.1 to 10 | 100 to 1000
Clc1cccnc1CN(CCc1cnc[nH]1)Cc1ncccc1Cl [Compound I-28] | 100 to 1000 | > 10 | > 10 | 0.1 to 10 | 0.01 to 100
Cc1cccnc1CN(CCc1cnc[nH]1)Cc1ncccc1Cl [Compound I-10] | 100 to 1000 | 5 to 10 | > 10 | 0.1 to 10 | 0.01 to 100
Clc1cccnc1CN(CCc1cnc[nH]1)Cc1nccc2ccccc12 [Compound I-37] | 0.01 to 100 | 5 to 10 | > 10 | 0.1 to 10 | 0.01 to 100
Cc1cccnc1CN(CCc1c[nH]cn1)Cc1nc2cc(F)ccc2n1C [Compound I-42] | ≥ 1000 | < 5 | > 10 | > 30 | 0.01 to 100
OCCCN(Cc1nc2ccccc2[nH]1)[C@H]1CCCc2cccnc21 [Compound I-19] | 100 to 1000 | > 10 | > 10 | 0.1 to 10 | 0.01 to 100
Cc1cccnc1CN(CCc1c[nH]cn1)Cc1nc2cccc(F)c2n1C [Compound I-40] | ≥ 1000 | < 5 | > 10 | 10 to 30 | 0.01 to 100
COCCCN(Cc1nc2ccccc2[nH]1)[C@H]1CCCc2cccnc21 [Compound I-18] | 100 to 1000 |  |  |  | 0.01 to 100
CC(=O)NCCCN(Cc1ncccc1C)[C@H]1CCCc2cccnc21 [Compound I-29] | ≥ 1000 |  |  |  | 0.01 to 100
